Measurements published in patent US11077169B2, “Soy-derived bioactive peptides for use in compositions and methods for wound healing, tissue engineering, and regenerative medicine” (Temple University-Of The Commonwealth System of Higher …, priority 2015, dated 2021).

System: HaCaT epithelial cells
Assay: wound closure in HaCaT cells with ethanol extracts and estrogen receptor antagonist
Assay type: cell-based, human

C[C@]12CC[C@@H]3c4ccc(O)cc4C[C@@H](CCCCCCCCC[S+]([O-])CCCC(F)(F)C(F)(F)F)[C@H]3[C@@H]1CC[C@@H]2O (some centres unmarked) [Fluvestrant]
effect on WSsoy-induced wound closure: did not affect
inhibition of SPI-induced wound closure (10 μM antagonist): significantly inhibited
